Patent US20040258779A1, “Dietary and pharmaceutical compositions for treatment of anemia, thrombocytopenia, and leukopenia” (priority 2003, published 2004)
Several values for one entry are separate records, joined by “and”; a condition that tells them apart may be missing. Equal values may be shown once.

How the values were obtained:
neutrophils = assay: Active oxygen forms by neutrophils, cytofluorometry; type: cell-based, human; settings: versus control data (p=0.08)
Procedure: (§1) This effect was evaluated by luminal dependent chemoluminiscence and cytofluorometry. In the second case the leukocytes were added to dichlorofluoroscein […]). This substance is originally non fluorescence one. However, after the penetration into the cells it is turned into green fluorochrom in the presence of the hydrogen peroxide. The reaction was monitored in the flow cytometer FACSCalibur.

[1] = tested on: leukocytes of the healthy donors; assay: Active oxygen forms by leukocytes, luminol dependent chemoluminiscence; type: cell-based, human
Procedure: This effect was evaluated by luminal dependent chemoluminiscence and cytofluorometry. In the first case leukocytes were separated by gelatin and connected with luminal, human serum and added to the vials with the different concentration of the substance.

[2] = tested on: human mononuclear blood cells; assay: TNF alpha production by human mononuclear blood cells; type: cell-based; settings: for TNF alpha synthesis by mononuclear cells, in words: versus control samples
Procedure: PL-3 was added in concentrations of 100 μg/ml, 10 μg/ml, 1 μg/ml, and feeding media was added to the control wells. Cytokine content was defined by IFA with commercial kit […] (Cytimmune, USA).

human mononuclear cells [3] = assay: GM-CSF production by the human mononuclear cells; type: cell-based; settings: for GM-CSF production by the human mononuclear cells: donors 1-7 and mean M±; for GM-CSF synthesis, in words: versus random synthesis (control), statistically significant
Procedure: PL-3 was added in concentrations of 100 μg/ml, 10 μg/ml, 1 μg/ml, and feeding media was added to the control wells. Cytokine content was defined by IFA with commercial kit […] (Cytimmune, USA). The effect of PL-3 on the synthesis of GM-CSF was evaluated accordingly to the previous method.

human mononuclear cells [4] = assay: Cell longevity of mononuclear leukocytes, propidium iodide flow cytometry; type: cell-based; settings: for cell longivity (percentage of dead cells): time not given (twofold reduction after 72 hours), donors 1-3 and mean M; for cell longevity: after 24 hours treatment; for cell longevity, protective effect: after 48 hours of incubation; for percentage of dead cells: after 72 hours of the incubation
monocytes = assay: Active oxygen forms by monocytes, cytofluorometry; type: cell-based, human; set-up: formation of active oxygen forms by monocytes: unit not given here; settings: for formation of active oxygen forms by monocytes: single donors and mean M
Procedure: as §1

target cells K-562 = assay: Natural killer cell cytotoxicity on 3H-uridine labeled target cells; type: cell-based, human; settings: for function of natural killer cells, Cytotoxicity (%): 3 hours incubation, K-562 targets, donors 1-7 and mean M
Procedure: Cells were separated after 3 hours of the incubation at 37° C. in CO2 incubator. Their cytotoxic action on the target cells K-562 labeled with ^3H-uridine was evaluated.

[5] = Hypersensitivity of the delayed type

CC(=O)N[C@H]1[C@H](O[C@H]2[C@H](O[C@H](C)C(=O)N[C@@H](C)C(=O)N[C@H](CCC(=O)O)C(N)=O)[C@@H](NC(C)=O)C(O)O[C@@H]2CO)O[C@H](CO)[C@@H](O)[C@@H]1O (some centres unmarked) [GMDP, reference compound]
active oxygen forms, cytofluometric analysis, in words (neutrophils): does not posses this activity
ability of leukocytes to generate the active oxygen forms (chemoluminiscence), in words [1]: did not change
TNF alpha synthesis by mononuclear cells, in words [2]: does not lead to the induction
GM-CSF production by the human mononuclear cells (human mononuclear cells [3]; 100 mkg/ml): 983 and 584 and 609 and 944 and 581 and 735 and 773
GM-CSF synthesis, in words (human mononuclear cells [3]): strong inductors
cell longivity (percentage of dead cells) (human mononuclear cells [4]; 1 μg/ml): 16 and 17 and 18
cell longivity (percentage of dead cells) (human mononuclear cells [4]; 10 μg/ml): 17 and 23 and 21
cell longivity (percentage of dead cells) (human mononuclear cells [4]; 100 μg/ml): 15 and 18 and 24
cell longevity (human mononuclear cells [4]): unchanged
cell longevity, protective effect (human mononuclear cells [4]): weak protective effect
percentage of dead cells (human mononuclear cells [4]): twofold reduction
generation of active oxygen forms by monocytes, in words (monocytes): do not generate the active oxygen forms
formation of active oxygen forms by monocytes (monocytes; concentration 1.0 (unit not given)): 27 and 16 (2×) and 23 and 54 and 15 and 12 and 18 and 14
formation of active oxygen forms by monocytes (monocytes; concentration 10.0 (unit not given)): 25 and 14 (2×) and 11 and 16 and 70 and 19 and 15 and 26
formation of active oxygen forms by monocytes (monocytes; concentration 100.0 (unit not given)): 14 and 15 and 12 and 16 (2×) and 34 (2×) and 102 and 19.5
function of natural killer cells, Cytotoxicity (%) (target cells K-562; 1 μg/ml): 51% and 49% and 38% and 44% and 50% and 47%
function of natural killer cells, Cytotoxicity (%) (target cells K-562; 10 μg/ml): 34% and 48% and 45% and 40% and 53% and 47%
function of natural killer cells, Cytotoxicity (%) (target cells K-562; 100 μg/ml): 33% and 48% and 46% and 44% and 50%

CC(=O)NC1C(OC2C(CO)OC(O)C(NC(C)=O)C2OC(C)C(=O)NC(C)C(=O)NC(CCC(=O)NC(CCCC(N)C(=O)O)C(=O)NC(C)C(=O)O)C(N)=O)OC(CO)C(O)C1O [PL-3, N-acetyl-glucosamine-N-acetyl-muramyl-L-alanine-D-isoglutamine-diaminopimenic acid-D-alanine]
active oxygen forms, cytofluometric analysis, in words (neutrophils): stimulated the active oxygen forms
ability of leukocytes to generate the active oxygen forms (chemoluminiscence), in words [1]: did not change
TNF alpha production in comparison with GMDP [2]: enhanced two fold
TNF alpha synthesis by mononuclear cells, in words [2]: significant increase
GM-CSF synthesis relative to GMDP (human mononuclear cells [3]; 10 mkg/ml and 100 mkg/ml, p=0.029 and 0.038): almost two times more
GM-CSF production by the human mononuclear cells (human mononuclear cells [3]; 10 mkg/ml): 1109 and 752 and 740 and 1115 and 920 and 1052
GM-CSF production by the human mononuclear cells (human mononuclear cells [3]; 10 mkg/ml, mean): 975 ± 282.5
GM-CSF synthesis, in words (human mononuclear cells [3]): strong inductors
cell longivity (percentage of dead cells) (human mononuclear cells [4]; 1 μg/ml): 16 and 18
cell longivity (percentage of dead cells) (human mononuclear cells [4]; 10 μg/ml): 16 and 21 and 17
cell longivity (percentage of dead cells) (human mononuclear cells [4]; 10 μg/ml, mean): 18
cell longivity (percentage of dead cells) (human mononuclear cells [4]; 100 μg/ml): 19 and 16
cell longivity (percentage of dead cells) (human mononuclear cells [4]; 100 μg/ml, mean): 18
cell longevity (human mononuclear cells [4]): unchanged
cell longevity, protective effect (human mononuclear cells [4]): weak protective effect
percentage of dead cells (human mononuclear cells [4]): twofold reduction
hypersensitivity of the delayed type [5]: absence of its effect
generation of active oxygen forms by monocytes, in words (monocytes): do not generate the active oxygen forms
formation of active oxygen forms by monocytes (monocytes; concentration 1.0 (unit not given), listed as GMTP): 31 and 15 and 29 and 50 and 25 (2×) and 18 (2×) and 16
formation of active oxygen forms by monocytes (monocytes; concentration 1.0 (unit not given), listed as GMTP, mean): 25.2
formation of active oxygen forms by monocytes (monocytes; concentration 10.0 (unit not given), listed as GMTP): 29 and 14 (2×) and 18 (2×) and 13 and 32 and 17 and 15
formation of active oxygen forms by monocytes (monocytes; concentration 10.0 (unit not given), listed as GMTP, mean): 18.9
formation of active oxygen forms by monocytes (monocytes; concentration 100.0 (unit not given), listed as GMTP): 22 and 18 and 13 and 25 and 20 and 42 and 0.6 and 26 and 31
formation of active oxygen forms by monocytes (monocytes; concentration 100.0 (unit not given), listed as GMTP, mean): 23.8
interferon-γ (interferon-γ): does not affect
function of natural killer cells, Cytotoxicity (%) (target cells K-562; 1 μg/ml, listed as GMTP): 45% and 56% and 41% and 37% and 55% and 63% and 48%
function of natural killer cells, Cytotoxicity (%) (target cells K-562; 1 μg/ml, listed as GMTP, mean): 49.2%
function of natural killer cells, Cytotoxicity (%) (target cells K-562; 10 μg/ml, listed as GMTP): 55% and 38% and 44% and 43% and 53% and 65% and 57%
function of natural killer cells, Cytotoxicity (%) (target cells K-562; 10 μg/ml, listed as GMTP, mean): 50.7%
cytotoxic activity of the natural killer cells, in words (target cells K-562; 100 μg/ml): increase the cytotoxic activity
function of natural killer cells, Cytotoxicity (%) (target cells K-562; 100 μg/ml, listed as GMTP): 56% and 55% and 49% and 51% and 66% and 54%
function of natural killer cells, Cytotoxicity (%) (target cells K-562; 100 μg/ml, listed as GMTP, mean): 54.2%
